Laboratory results taken from ChEMBL document CHEMBL1926636, “Isoxazoles incorporated N-substituted decahydroquinolines: a precursor to the next generation antimicrobial drug” (2012).
Values after ≈ are worked out from the molar mass of the structure shown.

Tests used:
[1] = system: Lysinibacillus sphaericus; assay: Antibacterial activity against Bacillus sphaericus ATCC 7031 at 10 ug/mL after 24 hrs by disc diffusion method; type: functional; settings: ATCC 7031, 24 h, read-out: IZ
[2] = system: Candida albicans; assay: Antifungal activity against Candida albicans ATCC 90028 by twofold serial dilution technique; type: functional
[3] = system: Escherichia coli; assay: Antibacterial activity against Escherichia coli ATCC 35218 at 10 ug/mL after 24 hrs by disc diffusion method; type: functional; settings: ATCC 35218, 24 h, read-out: IZ
[4] = system: Aspergillus niger; assay: Antifungal activity against Aspergillus niger ATCC 16404 at 10 ug/mL after 72 hrs by agar cup plate method; type: functional; settings: ATCC 16404, 72 h, read-out: IZ
[5] = system: Bacillus subtilis; assay: Antibacterial activity against Bacillus subtilis ATCC 6631 by twofold serial dilution technique; type: functional
[6] = system: Escherichia coli; assay: Antibacterial activity against Escherichia coli ATCC 35218 by twofold serial dilution technique; type: functional
[7] = system: Salmonella typhi; assay: Antibacterial activity against Salmonella typhi ATCC 6539 at 10 ug/mL after 24 hrs by disc diffusion method; type: functional, Salmonella enterica subsp. enterica serovar Typhi; settings: Salmonella enterica, ATCC 6539, 24 h; read-out: IZ
[8] = system: Staphylococcus aureus; assay: Antibacterial activity against Staphylococcus aureus ATCC 6538 by twofold serial dilution technique; type: functional
[9] = system: Aspergillus fumigatus; assay: Antifungal activity against Aspergillus fumigatus ATCC 28212 by twofold serial dilution technique; type: functional
[10] = system: Aspergillus fumigatus; assay: Antifungal activity against Aspergillus fumigatus ATCC 28212 at 10 ug/mL after 72 hrs by agar cup plate method; type: functional; settings: ATCC 28212, 72 h, read-out: IZ
[11] = system: Pseudomonas aeruginosa; assay: Antibacterial activity against Pseudomonas aeruginosa ATCC 9027 by twofold serial dilution technique; type: functional
[12] = system: Staphylococcus aureus; assay: Antibacterial activity against Staphylococcus aureus ATCC 6538 at 10 ug/mL after 24 hrs by disc diffusion method; type: functional; settings: ATCC 6538, 24 h, read-out: IZ
[13] = system: Candida albicans; assay: Antifungal activity against Candida albicans ATCC 90028 at 10 ug/mL after 72 hrs by agar cup plate method; type: functional; settings: ATCC 90028, 72 h, read-out: IZ
[14] = system: Candida albicans; assay: Antifungal activity against Candida albicans PYCC 3436 by twofold serial dilution technique; type: functional
[15] = system: Pseudomonas aeruginosa; assay: Antibacterial activity against Pseudomonas aeruginosa ATCC 9027 at 10 ug/mL after 24 hrs by disc diffusion method; type: functional; settings: ATCC 9027, 24 h, read-out: IZ
[16] = system: Bacillus subtilis; assay: Antibacterial activity against Bacillus subtilis ATCC 6631 at 10 ug/mL after 24 hrs by disc diffusion method; type: functional; settings: ATCC 6631, 24 h, read-out: IZ
[17] = system: Salmonella typhi; assay: Antibacterial activity against Salmonella typhi ATCC 6539 by twofold serial dilution technique; type: functional, Salmonella enterica subsp. enterica serovar Typhi; settings: Salmonella enterica
[18] = system: Candida albicans; assay: Antifungal activity against Candida albicans PYCC 3436 at 10 ug/mL after 72 hrs by agar cup plate method; type: functional; settings: PYCC 3436, 72 h, read-out: IZ
[19] = system: Lysinibacillus sphaericus; assay: Antibacterial activity against Bacillus sphaericus ATCC 7031 by twofold serial dilution technique; type: functional
[20] = system: Aspergillus niger; assay: Antifungal activity against Aspergillus niger ATCC 16404 by twofold serial dilution technique; type: functional

Structure (SMILES)	zone of inhibition at 10 µg/mL [1] [mm]	MIC99 [2] [µg/mL]	zone of inhibition at 10 µg/mL [3] [mm]	zone of inhibition at 10 µg/mL [4] [mm]	MIC99 [5] [µg/mL]	MIC99 [6] [µg/mL]	zone of inhibition at 10 µg/mL [7] [mm]	MIC99 [8] [µg/mL]	MIC99 [9] [µg/mL]	zone of inhibition at 10 µg/mL [10] [mm]	MIC99 [11] [µg/mL]	zone of inhibition at 10 µg/mL [12] [mm]	zone of inhibition at 10 µg/mL [13] [mm]	MIC99 [14] [µg/mL]	zone of inhibition at 10 µg/mL [15] [mm]	zone of inhibition at 10 µg/mL [16] [mm]	MIC99 [17] [µg/mL]	zone of inhibition at 10 µg/mL [18] [mm]	MIC99 [19] [µg/mL]	MIC99 [20] [µg/mL]
COc1ccc(C2ONC3=C2C(c2ccccc2)N(Cc2ccccc2)C2CCCCC32)cc1 (configuration not stated)	7	50 (≈ 110 µM)	6	7	100 (≈ 221 µM)	25 (≈ 55.2 µM)	11	50 (≈ 110 µM)	100 (≈ 221 µM)	3	100 (≈ 221 µM)	14	14	50 (≈ 110 µM)	4	5	100 (≈ 221 µM)	12	100 (≈ 221 µM)	> 100
c1ccc(CN2C(c3ccccc3)C3=C(NOC3c3ccccn3)C3CCCCC32)cc1 (configuration not stated)	16	50 (≈ 118 µM)	7	10	50 (≈ 118 µM)	25 (≈ 59 µM)	11	50 (≈ 118 µM)	12.5 (≈ 29.5 µM)	7	12.5 (≈ 29.5 µM)	12	18	12.5 (≈ 29.5 µM)	7	6	50 (≈ 118 µM)	18	25 (≈ 59 µM)	100 (≈ 236 µM)
c1ccc(CN2C(c3ccccc3)C3=C(NOC3c3ccccc3)C3CCCCC32)cc1 (configuration not stated)	11	> 100	4	4	100 (≈ 237 µM)	100 (≈ 237 µM)	3	100 (≈ 237 µM)	100 (≈ 237 µM)	2	100 (≈ 237 µM)	10	7	50 (≈ 118 µM)	3	4	> 100	10	100 (≈ 237 µM)	> 100
O=C(O)c1cn(C2CC2)c2cc(N3CCNCC3)c(F)cc2c1=O [CIPROFLOXACIN]	24	–	9	–	25 (≈ 75.4 µM)	18 (≈ 54.3 µM)	39	25 (≈ 75.4 µM)	–	–	12.5 (≈ 37.7 µM)	17	–	–	8	9	50 (≈ 151 µM)	–	20 (≈ 60.4 µM)	–
COc1ccc(C2ONC3=C2C(c2ccccc2)N(Cc2ccccc2)C2CCCCC32)cc1OC (configuration not stated)	9	50 (≈ 104 µM)	6	14	50 (≈ 104 µM)	50 (≈ 104 µM)	12	100 (≈ 207 µM)	12.5 (≈ 25.9 µM)	6	25 (≈ 51.8 µM)	9	15	50 (≈ 104 µM)	4	7	100 (≈ 207 µM)	9	100 (≈ 207 µM)	100 (≈ 207 µM)
c1ccc(CN2C(c3ccccc3)C3=C(NOC3c3ccco3)C3CCCCC32)cc1 (configuration not stated)	12	100 (≈ 242 µM)	3	4	50 (≈ 121 µM)	100 (≈ 242 µM)	2	100 (≈ 242 µM)	50 (≈ 121 µM)	4	50 (≈ 121 µM)	5	12	100 (≈ 242 µM)	4	5	> 100	4	50 (≈ 121 µM)	> 100
c1ccc(CN2C(c3ccccc3)C3=C(NOC3c3ccc4c(c3)OCO4)C3CCCCC32)cc1 (configuration not stated)	11	50 (≈ 107 µM)	4	11	100 (≈ 214 µM)	50 (≈ 107 µM)	7	100 (≈ 214 µM)	50 (≈ 107 µM)	4	25 (≈ 53.6 µM)	8	16	100 (≈ 214 µM)	5	5	> 100	6	50 (≈ 107 µM)	100 (≈ 214 µM)
